One block for each compound: values may come before it.
Tested on: 282377-053-R-J1-PDC complex spheroids, viability
Assay: Anticancer human tumor 282377-053-R-J1-PDC patient-derived colon adenocarcinoma cell line growth inhibition [GQUAD]
Conditions: for IC50: curve of first compound; for viability, T/C: stronger effect = lower value
Procedure, shortened: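 Tumor cells were grown as complex spheroids with HUVEC endothelial cells and mesenchymal stem cells as stroma. G-quadruplex stabilizers were combined with targeted agents over half-log dilutions from near the clinical Cmax, or from 10 microM.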

[1] = second compound 0.0316 µM, first compound 0.0316 µM
[2] = second compound 0.0316 µM, first compound 0.1 µM
[3] = second compound 0.0316 µM, first compound 0.316 µM
[4] = second compound 0.0316 µM, first compound 1 µM
[5] = second compound 0.0316 µM, first compound 3.16 µM
[6] = second compound 0.0316 µM, first compound 10 µM
[7] = second compound 0.1 µM, first compound 0.0316 µM
[8] = second compound 0.1 µM, first compound 0.1 µM
[9] = second compound 0.1 µM, first compound 0.316 µM
[10] = second compound 0.1 µM, first compound 1 µM
[11] = second compound 0.1 µM, first compound 3.16 µM
[12] = second compound 0.1 µM, first compound 10 µM
[13] = second compound 0.316 µM, first compound 0.0316 µM
[14] = second compound 0.316 µM, first compound 0.1 µM
[15] = second compound 0.316 µM, first compound 0.316 µM
[16] = second compound 0.316 µM, first compound 1 µM
[17] = second compound 0.316 µM, first compound 3.16 µM
[18] = second compound 0.316 µM, first compound 10 µM
[19] = second compound 1 µM, first compound 0.0316 µM
[20] = second compound 1 µM, first compound 0.1 µM
[21] = second compound 1 µM, first compound 0.316 µM
[22] = second compound 1 µM, first compound 1 µM
[23] = second compound 1 µM, first compound 3.16 µM
[24] = second compound 1 µM, first compound 10 µM
[25] = second compound 3.16 µM, first compound 0.0316 µM
[26] = second compound 3.16 µM, first compound 0.1 µM
[27] = second compound 3.16 µM, first compound 0.316 µM
[28] = second compound 3.16 µM, first compound 1 µM
[29] = second compound 3.16 µM, first compound 3.16 µM
[30] = second compound 3.16 µM, first compound 10 µM
[31] = second compound 10 µM, first compound 0.0316 µM
[32] = second compound 10 µM, first compound 0.1 µM
[33] = second compound 10 µM, first compound 0.316 µM
[34] = second compound 10 µM, first compound 1 µM
[35] = second compound 10 µM, first compound 3.16 µM
[36] = second compound 10 µM, first compound 10 µM
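Further: spheroids exposed to compounds for 7 days before readout.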
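Wherever viability, T/C is given: percent of vehicle DMSO control viability with 100% = untreated-like growth.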

IC50 (second compound 0.0316 µM): > 10 µM | IC50 (second compound 0.1 µM): 9.72 µM | IC50 (second compound 0.316 µM): > 10 µM | IC50 (second compound 1 µM): > 10 µM | IC50 (second compound 3.16 µM): 0.979 µM | IC50 (second compound 10 µM): 0.337 µM
Compound: COc1cc(C2c3cc4c(cc3C(OC3OC5COC(C)OC5C(O)C3O)C3COC(=O)C23)OCO4)cc(OC)c1O (stereo unspecified) + Cc1cnc(CNC(=O)c2c(=O)c3ccc(N4CCCN(C)CC4)nc3n3c2sc2ccccc23)cn1
viability, T/C [1]: 127% | viability, T/C [2]: 95% | viability, T/C [3]: 126% | viability, T/C [4]: 90% | viability, T/C [5]: 68.3% | viability, T/C [6]: 50.8% | viability, T/C [7]: 109% | viability, T/C [8]: 91.3% | viability, T/C [9]: 107% | viability, T/C [10]: 76.1% | viability, T/C [11]: 72.7% | viability, T/C [12]: 48.6% | viability, T/C [13]: 103% | viability, T/C [14]: 91.9% | viability, T/C [15]: 87.1% | viability, T/C [16]: 68.8% | viability, T/C [17]: 66.4% | viability, T/C [18]: 50.9% | viability, T/C [19]: 70.7% | viability, T/C [20]: 51.3% | viability, T/C [21]: 70.2% | viability, T/C [22]: 63% | viability, T/C [23]: 62.7% | viability, T/C [24]: 41.6% | viability, T/C [25]: 60.5% | viability, T/C [26]: 57.5% | viability, T/C [27]: 49.8% | viability, T/C [28]: 48.5% | viability, T/C [29]: 52.1% | viability, T/C [30]: 37.4% | viability, T/C [31]: 45.4% | viability, T/C [32]: 49.7% | viability, T/C [33]: 56.3% | viability, T/C [34]: 49.1% | viability, T/C [35]: 42.1% | viability, T/C [36]: 26.3%

IC50 (second compound 0.0316 µM): 0.97 µM | IC50 (second compound 0.1 µM): 0.794 µM | IC50 (second compound 0.316 µM): 0.545 µM | IC50 (second compound 1 µM): 0.331 µM | IC50 (second compound 3.16 µM): 0.297 µM | IC50 (second compound 10 µM): < 0.0316 µM
Compound: COc1cccc2c1C(=O)c1c(O)c3c(c(O)c1C2=O)CC(O)(C(=O)CO)CC3OC1CC(N)C(O)C(C)O1 (stereo unspecified) + Cc1cnc(CNC(=O)c2c(=O)c3ccc(N4CCCN(C)CC4)nc3n3c2sc2ccccc23)cn1
viability, T/C [1]: 140% | viability, T/C [2]: 118% | viability, T/C [3]: 83.6% | viability, T/C [4]: 55.6% | viability, T/C [5]: 11.3% | viability, T/C [6]: 1.72% | viability, T/C [7]: 99.8% | viability, T/C [8]: 97.5% | viability, T/C [9]: 82% | viability, T/C [10]: 41.1% | viability, T/C [11]: 13.1% | viability, T/C [12]: 1.51% | viability, T/C [13]: 91.6% | viability, T/C [14]: 95.1% | viability, T/C [15]: 55.5% | viability, T/C [16]: 38.9% | viability, T/C [17]: 11.9% | viability, T/C [18]: 1% | viability, T/C [19]: 68.2% | viability, T/C [20]: 59.6% | viability, T/C [21]: 44.3% | viability, T/C [22]: 44.8% | viability, T/C [23]: 8.25% | viability, T/C [24]: 0.83% | viability, T/C [25]: 56.4% | viability, T/C [26]: 62% | viability, T/C [27]: 41.3% | viability, T/C [28]: 40.1% | viability, T/C [29]: 8.56% | viability, T/C [30]: 0.74% | viability, T/C [31]: 54.4% | viability, T/C [32]: 46.4% | viability, T/C [33]: 47% | viability, T/C [34]: 39.9% | viability, T/C [35]: 2.37% | viability, T/C [36]: 0.53%

IC50 (second compound 0.0316 µM): > 10 µM | IC50 (second compound 0.1 µM): > 10 µM | IC50 (second compound 0.316 µM): > 10 µM | IC50 (second compound 1 µM): > 10 µM | IC50 (second compound 3.16 µM): > 10 µM | IC50 (second compound 10 µM): < 0.0316 µM
Compound: O=c1[nH]cc(F)c(=O)[nH]1 + Cc1cnc(CNC(=O)c2c(=O)c3ccc(N4CCCN(C)CC4)nc3n3c2sc2ccccc23)cn1
viability, T/C [1]: 98.6% | viability, T/C [2]: 92.1% | viability, T/C [3]: 114% | viability, T/C [4]: 82.9% | viability, T/C [5]: 77% | viability, T/C [6]: 65.4% | viability, T/C [7]: 94.6% | viability, T/C [8]: 97.7% | viability, T/C [9]: 107% | viability, T/C [10]: 76.2% | viability, T/C [11]: 76.1% | viability, T/C [12]: 65% | viability, T/C [13]: 78.3% | viability, T/C [14]: 82.6% | viability, T/C [15]: 81.4% | viability, T/C [16]: 76.3% | viability, T/C [17]: 68.5% | viability, T/C [18]: 62.8% | viability, T/C [19]: 51.3% | viability, T/C [20]: 51.8% | viability, T/C [21]: 62.5% | viability, T/C [22]: 56.8% | viability, T/C [23]: 55.6% | viability, T/C [24]: 48.3% | viability, T/C [25]: 54.8% | viability, T/C [26]: 50.1% | viability, T/C [27]: 49% | viability, T/C [28]: 44.2% | viability, T/C [29]: 63.6% | viability, T/C [30]: 53.9% | viability, T/C [31]: 46.4% | viability, T/C [32]: 45.7% | viability, T/C [33]: 54.5% | viability, T/C [34]: 52.5% | viability, T/C [35]: 54.5% | viability, T/C [36]: 34.9%

From PubChem BioAssay AID2060501 (Molecular Pharmacology Branch, DTP, NCI, 2025)
